Experiments:
Assay type in all cases: physicochemical
[1] = Solid-state hygroscopicity / stability against hydration
[2] = Relative thermodynamic stability of Forms I and II: competitive slurry experiments; conditions: for Result (XRPD): seeded with Form I + Form II after 4 h, analyzed wet
Experimental: (§1) The relative thermodynamic stability of the polymorphs was determined by slurry experiments at RT and 5° C. […] The stability was further investigated at 5° C. and in addition, another experiment was performed at MEK at RT. MEK was chosen as suspending media because that was the only solvent where Form II was formed when slurrying the starting material. […] The experiment at 5° C. in TBME was actually carried out only as a control.

[3] = Critical water activity: seeded suspension equilibration of Hydrate vs anhydrous Forms I and II in 2-PrOH/water and THF/water; conditions: for Result (XRPD): analyzed wet
Experimental: The critical water activity between the Hydrate and anhydrous Forms I and II was attempted to be determined at room temperature in 2-PrOH/water and THF/water mixtures. […] After two additional days of stirring at RT, the solid was separated from the liquid by centrifuge filtering.
In order to clarify the root cause of the surprising results regarding the critical water activities, three further experiments were performed. The slurries at water activities of 0.5 and 0.7 were repeated using freshly prepared solvent mixtures and the suspension equilibration at a water activity of 0.7 was also performed in 2-PrOH/water mixture. The formation of thick suspension in 2-PrOH/water mixtures was experienced again; the initially obtained thick suspension turned into a well-stirred slurry upon one day of stirring. Then it was seeded with the three forms and the solid was isolated after additional two days of stirring.

[4] = TG-FTIR thermogram, beginning of decomposition; conditions: N2 atmosphere; 10° C./min, 25 to 300° C.
Experimental: FT-Raman Spectroscopy: Bruker Multi-RAM with OPUS 6.5 software; Nd:YAG 1064-nm excitation, Ge detector, 3500-50 cm-1 range; typical measurement conditions: 300 mW nominal laser power, 64 scans, 2 cm-1 resolution; samples pressed into the cavity of aluminum sample holders TG-FTIR: Netzsch Thermo-Microbalance TG 209 with Bruker FT-IR Spectrometer Vector 22; aluminum crucible (with microhole); N2 atmosphere; 10° C./min heating rate, from 25 to 300° C.

[5] = Dehydration of the Hydrate, DSC in an open pan
Experimental: DSC: TA Instruments DSC Q2000; hermetically closed gold crucible; N2 atmosphere; 10° C./min heating rate, from 20 to 190° C. The melting point is understood as the peak onset.
1) Measuring by DSC in an open pan, the water of crystallization evaporates in the temperature range of 20-100° C. Then a sharp endothermic event due to melting follows in the thermogram at 159° C. (FIG. 10).

[6] = Solvate formation in suspension crystallization at RT
Experimental: 1) About 100 mg of 5-fluoro-4-imino-3-methyl-1-tosyl-3,4-dihydropyrimidin-2(1H)-one was suspended in 1.0 ml of 2-PrOH previously dried over 4 Å molecular sieves and the suspension was stirred for 11 d at RT and filtered through a 0.2-μm PTFE centrifuge filter and analyzed without drying, or dried in dry N2 stream at RT for 1 h.
2) About 100 mg of 5-fluoro-4-imino-3-methyl-1-tosyl-3,4-dihydropyrimidin-2(1H)-one was suspended in 1.0 ml of tert-butyl methyl ether (TBME) previously dried over 4 Å molecular sieves and the suspension was stirred for 11 d at RT, filtered through a 0.2-μm PTFE centrifuge filter and analyzed without drying.
3) About 100 mg of 5-fluoro-4-imino-3-methyl-1-tosyl-3,4-dihydropyrimidin-2(1H)-one was suspended in 1.0 ml of toluene previously dried over 4 Å molecular sieves and the suspension was stirred for 11 d at RT, filtered through a 0.2-μm PTFE centrifuge filter and analyzed without drying.
Form II was prepared by suspension crystallization. About 120 mg of 5-fluoro-4-imino-3-methyl-1-tosyl-3,4-dihydropyrimidin-2(1H)-one was suspended in 0.8 ml of methyl ethyl ketone (MEK) previously dried over 4 Å molecular sieves and the suspension was stirred for 11 d at room temperature and filtered through a 0.2-μm PTFE centrifuge filter. The solid was allowed to dry under ambient conditions for 1 d.

[7] = Solubility in suspending medium; conditions: in MEK
Experimental: as §1

Cc1ccc(S(=O)(=O)n2cc(F)c(=N)n(C)c2=O)cc1 [Form I, 5-fluoro-4-imino-3-methyl-1-tosyl-3,4-dihydropyrimidin-2(1H)-one]
hygroscopicity [1]: non-hygroscopic | kinetic stability against hydration ([1]; at higher relative humidity): high kinetic stability against hydration | relative stability vs Form II in competitive slurry ([2]; TBME at 5° C.): unequivocally more stable than Form II | thermodynamic stability vs polymorph Form II ([2]; at 5° C. and above): thermodynamically more stable than polymorph Form II | relative thermodynamic stability vs Form II ([2]; water activities of 0.1 and 0.3, RT): more stable | relative thermodynamic stability among the three forms suspended ([3]; water activity of 0.3 and below, RT): thermodynamically most stable | thermodynamic stability vs the hydrate form ([3]; water activity of 0.3 or less at room temperature): thermodynamically more stable than the hydrate form | decomposition beginning at a temperature (TG-FTIR) [4]: greater than 210 °C

Cc1ccc(S(=O)(=O)n2cc(F)c(=N)n(C)c2=O)cc1 [Form II, 5-fluoro-4-imino-3-methyl-1-tosyl-3,4-dihydropyrimidin-2(1H)-one]
relative thermodynamic stability among the three forms suspended ([3]; water activity of 0.7, RT (Table 1), patent assumes this finding untrue): more stable | decomposition beginning at a temperature (TG-FTIR) [4]: greater than 210 °C

Cc1ccc(S(=O)(=O)n2cc(F)c(=N)n(C)c2=O)cc1 [Form S1, 5-fluoro-4-imino-3-methyl-1-tosyl-3,4-dihydropyrimidin-2(1H)-one]
decomposition beginning at a temperature (TG-FTIR) [4]: greater than 200 °C

Cc1ccc(S(=O)(=O)n2cc(F)c(=N)n(C)c2=O)cc1 [Form S5, 5-fluoro-4-imino-3-methyl-1-tosyl-3,4-dihydropyrimidin-2(1H)-one]
decomposition beginning at a temperature (TG-FTIR) [4]: greater than 180 °C

Cc1ccc(S(=O)(=O)n2cc(F)c(=N)n(C)c2=O)cc1 [Form S8, 5-fluoro-4-imino-3-methyl-1-tosyl-3,4-dihydropyrimidin-2(1H)-one]
decomposition beginning at a temperature (TG-FTIR) [4]: greater than 180 °C

Cc1ccc(S(=O)(=O)n2cc(F)c(=N)n(C)c2=O)cc1 [Hydrate, 5-fluoro-4-imino-3-methyl-1-tosyl-3,4-dihydropyrimidin-2(1H)-one]
temperature range in which the water of crystallization evaporates [5]: 20-100 °C | form resulting from dehydration ([5]; melting at 159° C. coincides with Form I): anhydrous Form I | relative thermodynamic stability among the three forms suspended ([3]; water activity of 0.5 and 0.9, RT (Table 1)): more stable | relative stability vs Form I and Form II (ultimate finding) ([3]; water activity of 0.5 and higher at RT): more stable than the two anhydrous forms | decomposition beginning at a temperature (TG-FTIR) [4]: greater than 190 °C

Cc1ccc(S(=O)(=O)n2cc(F)c(=N)n(C)c2=O)cc1 [PP539-P1, 5-fluoro-4-imino-3-methyl-1-tosyl-3,4-dihydropyrimidin-2(1H)-one]
Result (XRPD) ([2]; MEK (dry), 5° C.): Form S9 + Form I | Result (XRPD) ([2]; MEK (dry), 22° C.): Form I + Form II | Result (XRPD) ([2]; TBME (dry), 5° C.): Form I | Result (XRPD) ([3]; 2PrOH/water = 89.6/10.4, aw 0.7, seeded with HH + Form I + Form II after 1 d): HH″ + traces | Result (XRPD) ([3]; 2PrOH/water = 94.7/5.3, aw 0.5, RT, seeded with HH + Form I + Form II after 3 d): HH′ | Result (XRPD) ([3]; 2PrOH/water = 97.5/2.5, aw 0.3, RT, seeded with HH + Form I + Form II after 3 d): Form I | Result (XRPD) ([3]; 2PrOH/water = 99.3/0.7, aw 0.1, RT, seeded with HH + Form I + Form II after 3 d, 2 d more stirring): Form I | Result (XRPD) ([3]; THF/water = 79.7/21.3, aw 0.9, RT, seeded with HH + Form I + Form II after 3 d): HH″ | Result (XRPD) ([3]; THF/water = 96.4/3.6, aw 0.7, RT, seeded with HH + Form I + Form II after 3 d): Form II | Result (XRPD) ([3]; repeat, fresh solvent, 2PrOH/water = 94.7/5.3, aw 0.5, seeded with HH + Form I + Form II after 1 d): HH″ + some | Result (XRPD) ([3]; repeat, fresh solvent, THF/water = 96.4/3.6, aw 0.7, seeded with HH + Form I + Form II after 1 d): HH′ | formation of thermodynamically stable solvates ([6]; with MEK at RT, Form II formed): does not form thermodynamically stable solvates | formation of thermodynamically stable solvates ([6]; with toluene, 2-PrOH and TBME at RT, Form I formed): does not form thermodynamically stable solvates | solubility [7]: rather high

Source: patent US11632954B2, “Polymorphs of 5-fluoro-4-imino-3-methyl-1 -tosyl-3,4-dihydropyrimidin-2-one” (ADAMA MAKHTESHIM LTD., priority 2017, dated 2023)
